Reference: patent US4474775A, “Pyrazol-4-yl phosphates and insecticidal and acaricidal use” (priority 1979, dated 1984)

Key:
[1] = Oral acute toxicity in mice (Toxicological Test); details: mouse, in vivo, five-week aged ddY-SLC strained male mice
Text: Below tabulated are the oral acute toxicity values obtained with five-week aged, ddY-SLC strained male mice: […]

Unaspis yanonensis = experiment: Effectiveness against Unaspis yanonensis (Testing Example 3); assay type: in vivo; details: 480 h, second-instar larvae, 500 ppm wettable powder suspension sprayed, 20th day after spraying
Description: Testing Example 3: Effectiveness of Unaspis yanonensis
A test compound was processed into a wettable powder in accordance with the formulation of Example 7, and was diluted with water (with Dyne®, spreading agent, as diluted 3000-fold) to prepare a 500 ppm aqueous suspension. 20 ml of the aqueous suspension was sprayed on second-instar larvae (10 to 50 of the number parasitized) of Unaspis yanonensis on a seedling of Citrus trifoliate (2 months after germination) being planted in a pot (9 cm in diameter). After the sprayed pot was transferred to a greenhouse (25° to 30°C.), adult insects were counted on the 20th day after spraying. Mortality (%) is calculated by the following equation: [formula]

Spodoptera litura = experiment: Effectiveness against Spodoptera litura (Testing Example 2); assay type: in vivo; details: second-instar larvae, 500 ppm spray on soybean, 28° C., 24 hours
Description: Testing Example 2: Effectiveness against Spodoptera litura
Twenty milliliters of a 500 ppm, water-diluted solution (with Dyne® Takeda Chem. Ind. Ltd., spreading agent, as diluted 3000-fold) of the test compound (the emulsifiable concentrate of Example 6) was sprayed on grown seedlings (10 days after germination) of soybean plant water-cultured in a polyethylene cup by the use of a spray gun (nozzle pressure of 1 kg/cm^2 gauge) in a spraying chamber. 2 hours after spraying, two main leaves of soybean plant were cut off and were placed into two cups (6 cm in diameter and 4 cm in depth), respectively, and ten second-instar larvae of Spodoptera litura were liberated. The cups were left in the room (28° C.) for 24 hours, and the dead larvae were counted.

Tetranychus urticae = experiment: Effectiveness against Tetranychus urticae (Testing Example 4); assay type: in vivo; details: decrease rate grade, 500 ppm spray on kidney bean plant; for Efficacy grading, 2nd day: 2nd day after spraying; for Efficacy grading, 7th day: 7th day after spraying
Description: Testing Example 4: Effectiveness against Tetranychus urticae
A test compound was processed into an emulsifiable concentrate in accordance with the formulation of Example 6, and diluted with water (with Dyne®, spreading agent, as diluted 3000-fold) to prepare a 500 ppm aqueous solution. Ten female adults of Tetranychus urticae) were infected on the seedling of a kidney bean plant water-cultured in a polyethylene cup, and the cups were placed in a glass chamber (28° C.) for 24 hours, followed by spraying 20 ml of the aqueous solution on the kidney bean plant. After the sprayed cup was placed again in the glass chamber, the number of the adults and larvae living on the leaves was counted on the 2nd and 7th days after spraying. The test was repeated twice, and the test results are tabulated in Table 5 in terms of the efficacy grading as determined by calculating a decrease rate by the following equation:
Decrease rate (%)=[(number of mites tested-number of larvae living on the day of inspection)/(number of mites tested)]×100

Laodelphax striatellus [2] = experiment: Effectiveness against Laodelphax striatellus, adults, dust on paddy-rice plant (Testing Example 1 (b)); assay type: in vivo; details: small brown planthopper, adults on dusted rice, 24 h
Description: (§1) Testing Example 1: Effectiveness against Laodelphax striatellus
(b) A test compound was processed into a dust preparation in accordance with the formulation of Example 8, and […] of the preparation was dusted on the potted paddy-rice plant (1/5,000 a) by the Berger Duster method. After dusting, leaves (15 cm long) of the paddy rice were cut off and were placed in a test tube containing 1 ml of water in the bottom, and ten adults of Laodelphax striatellus were released therein. After allowing the test tube to stand in the room (28° C.) for 24 hours, the dead insects were counted.

Laodelphax striatellus [3] = experiment: Effectiveness against Laodelphax striatellus, third-instar larvae, root dip (Testing Example 1 (a)); assay type: in vivo; details: 40 ppm emulsifiable concentrate dilution, root dip 2 hours, 28° C., 24 hours, read-out: Mortality (I)
Description: as §1
(a) A test compound was processed into an emulsifiable concentrate in accordance with the formulation of Example 6, followed by diluting with water to prepare a treating solution of a 40 ppm concentration. 2.5 ml of the treating solution was placed into a test tube (with 1.7 cm of diameter, 4 cm deep), in which three seedlings of a paddy-rice plant (on the 7th day after germination) were allowed to stand so their root portions were dipped into the solution for 2 hours. The seedlings were then transferred into a test tube having 1 ml water placed in the bottom, and ten third-instar larvae of Laodelphax striatellus were released. After allowing the test tube to stand in the room (28° C.) for 24 hours, the dead larvae were counted. The test is repeated twice, and the test results are tabulated, in terms of mortality, in Table 2 (I).

SMILES | LD50 [1] | mortality at 500 µg/mL (Unaspis yanonensis) | mortality at 500 ppm (Spodoptera litura) | Efficacy grading, 2nd day (Tetranychus urticae) | Efficacy grading, 7th day (Tetranychus urticae) | Mortality (II) (Laodelphax striatellus [2]) | mortality at 40 µg/mL (Laodelphax striatellus [3])
CCOP(=S)(OCC)Oc1cnn(-c2ccccc2)c1 [compound 2] | > 300 mg/kg | 75% | – | – | – | – | –
CCCSP(=O)(OCC)Oc1cnn(-c2ccccc2Cl)c1 (centres unmarked) [compound 12] | > 300 mg/kg | 71% | 100% | 3 (Not less than 90) | 3 (Not less than 90) | – | –
CCCSP(=O)(OCC)Oc1cnn(-c2ccc(Cl)cc2Cl)c1 (centres unmarked) [compound 29] | ~300 mg/kg | 97% | 100% | 3 (Not less than 90) | 3 (Not less than 90) | 30% | 95%
CCCSP(=S)(OCC)Oc1cnn(-c2ccc(OC)cc2)c1 (centres unmarked) [compound 25] | > 300 mg/kg | 100% | 100% | 3 (Not less than 90) | 3 (Not less than 90) | – | –
COP(=S)(OC)Oc1cnn(-c2ccccc2)c1 [Compound No. 1] | > 300 mg/kg | 86% | – | 3 (Not less than 90) | 3 (Not less than 90) | – | –
CCCOP(=S)(OCC)Oc1cnn(-c2ccccc2)c1 (centres unmarked) [Compound No. 3] | > 300 mg/kg | 79% | – | 3 (Not less than 90) | 0 (Not more than 20) | – | –
CCOP(=S)(OCC)Oc1cnn(-c2ccc(C)cc2C)c1 [compound 34] | > 300 mg/kg | 79% | – | – | – | – | –
CCCSP(=O)(OCC)Oc1cnn(-c2ccc(Cl)c(Cl)c2)c1 (centres unmarked) [Compound No. 31, O-ethyl-O-[3,4-dichlorophenyl)pyrazol-4-yl]-S-n-propyl phosphorothiolate] | > 300 mg/kg | 75% | 100% | 3 (Not less than 90) | 3 (Not less than 90) | 90% | 100%
CCCSP(=O)(OCC)Oc1cnn(-c2ccccc2)c1 (centres unmarked) [Compound No. 4, O-ethyl-O-(1-phenylpyrazol-4-yl)-S-n-propylphosphorothiolate] | > 300 mg/kg | 84% | 100% | 3 (Not less than 90) | 3 (Not less than 90) | – | –
CCCSP(=O)(OCC)Oc1cnn(-c2ccc(C)cc2C)c1 (centres unmarked) [compound 35] | ~300 mg/kg | 82% | 100% | 3 (Not less than 90) | 3 (Not less than 90) | – | –
CCCSP(=O)(OCC)Oc1cnn(-c2cc(Cl)cc(Cl)c2)c1 (centres unmarked) [compound 33] | > 300 mg/kg | 70% | 100% | 3 (Not less than 90) | 3 (Not less than 90) | 65% | 100%
